In PubChem BioAssay (NCI):
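Cells were grown in 96-well plates and exposed to each compound for 48 hours at five concentrations; endpoints were interpolated linearly between bracketing concentrations, or set to the highest concentration if not reached. TGI: concentration producing complete growth inhibition.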

Tests used:
Assay in all cases: NCI-60 cell line screen, 48 h
EKVX NSCLC = system: EKVX NSCLC
HT29 colon = system: HT29 colon
HCT-15 colon = system: HCT-15 colon
SK-MEL-2 melanoma = system: SK-MEL-2 melanoma
NCI-H23 lung = system: NCI-H23 lung
SW-620 colon = system: SW-620 colon
UACC-62 melanoma = system: UACC-62 melanoma
SK-OV-3 ovarian = system: SK-OV-3 ovarian
IGROV1 ovarian = system: IGROV1 ovarian
COLO 205 colon = system: COLO 205 colon

SMILES | TGI (EKVX NSCLC) [µM] | TGI (HT29 colon) [µM] | TGI (HCT-15 colon) [µM] | TGI (SK-MEL-2 melanoma) [µM] | TGI (NCI-H23 lung) [µM] | TGI (SW-620 colon) [µM] | TGI (UACC-62 melanoma) [µM] | TGI (SK-OV-3 ovarian) [µM] | TGI (IGROV1 ovarian) [µM] | TGI (COLO 205 colon) [µM]
CC12C=CC(=O)C=C1CCC1C3CCC(O)(C(=O)CO)C3(C)CC(O)C12F (stereo not given) | > 100 | > 100 | > 100 | > 100 | > 100 | > 100 | > 100 | > 100 | > 100 | > 100
CON(C)c1nc(N(C)OC)nc(N(C)OC)n1 | > 10 | > 10 | > 10 | > 10 | > 10 | > 10 | > 10 | > 10 | > 10 | > 10
Nc1nc(O)c2ncn([C@H]3CC[C@@H](CO)O3)c2n1 | – | > 100 | > 100 | > 100 | > 100 | > 100 | > 100 | > 100 | > 100 | > 100
CN1C(c2ccccc2)CC(=O)C(N)C1c1ccccc1 (stereo not given) | > 80.4 | 55.8 | > 63.1 | 41.1 | > 100 | 57.1 | 81.2 | > 100 | > 100 | 32.5
Cn1c(-c2ccccc2)cc(-c2cccs2)c1-c1cccs1 | > 100 | > 100 | > 100 | > 100 | > 100 | > 100 | > 100 | > 100 | > 100 | > 100
Cc1cc(C)nc(NS(=O)(=O)c2ccc(NC(=O)c3cccc4c(Nc5ccc(S(=O)(=O)Nc6cc(C)on6)cc5)c5ccccc5nc34)cc2)n1 | 75.6 | 46.7 | – | 40 | 42.6 | – | 40.9 | 75.2 | – | –
CCN1CCC(O)(/C=C/c2ccccc2C)C(C(=O)/C=C/c2ccccc2C)C1 (stereo not given) | 16.8 | 6.7 | 3.8 | 5.57 | 4.11 | 10.1 | 10.7 | 21 | 14.5 | 3.13
COC(=O)C1=C(OC(=O)/C(=C/c2ccc(Cl)cc2)c2ccc(Cl)cc2)C(C(=O)OC)[C@]2(O)[C@@H](C(=O)OC)[C@H]1C[C@@H](c1ccccc1)[C@@H]2C(=O)OC (stereo not given in full) | > 100 | > 100 | > 100 | > 100 | > 100 | > 100 | > 100 | > 100 | > 100 | > 100
